Legend:
aqueous solubility = format: physicochemical
human PBMCs = experiment: Induction of IFN-α, IFN-γ, IL-12 and IL-18 in human PBMCs, ELISA; format: cell-based
human TLR7 = biological target: T1, human TLR7 (Homo sapiens, UniProt Q9NYK1); experiment: human TLR7-specific reporter gene assay; format: cell-based
T1 sequence (Q9NYK1 27-1049): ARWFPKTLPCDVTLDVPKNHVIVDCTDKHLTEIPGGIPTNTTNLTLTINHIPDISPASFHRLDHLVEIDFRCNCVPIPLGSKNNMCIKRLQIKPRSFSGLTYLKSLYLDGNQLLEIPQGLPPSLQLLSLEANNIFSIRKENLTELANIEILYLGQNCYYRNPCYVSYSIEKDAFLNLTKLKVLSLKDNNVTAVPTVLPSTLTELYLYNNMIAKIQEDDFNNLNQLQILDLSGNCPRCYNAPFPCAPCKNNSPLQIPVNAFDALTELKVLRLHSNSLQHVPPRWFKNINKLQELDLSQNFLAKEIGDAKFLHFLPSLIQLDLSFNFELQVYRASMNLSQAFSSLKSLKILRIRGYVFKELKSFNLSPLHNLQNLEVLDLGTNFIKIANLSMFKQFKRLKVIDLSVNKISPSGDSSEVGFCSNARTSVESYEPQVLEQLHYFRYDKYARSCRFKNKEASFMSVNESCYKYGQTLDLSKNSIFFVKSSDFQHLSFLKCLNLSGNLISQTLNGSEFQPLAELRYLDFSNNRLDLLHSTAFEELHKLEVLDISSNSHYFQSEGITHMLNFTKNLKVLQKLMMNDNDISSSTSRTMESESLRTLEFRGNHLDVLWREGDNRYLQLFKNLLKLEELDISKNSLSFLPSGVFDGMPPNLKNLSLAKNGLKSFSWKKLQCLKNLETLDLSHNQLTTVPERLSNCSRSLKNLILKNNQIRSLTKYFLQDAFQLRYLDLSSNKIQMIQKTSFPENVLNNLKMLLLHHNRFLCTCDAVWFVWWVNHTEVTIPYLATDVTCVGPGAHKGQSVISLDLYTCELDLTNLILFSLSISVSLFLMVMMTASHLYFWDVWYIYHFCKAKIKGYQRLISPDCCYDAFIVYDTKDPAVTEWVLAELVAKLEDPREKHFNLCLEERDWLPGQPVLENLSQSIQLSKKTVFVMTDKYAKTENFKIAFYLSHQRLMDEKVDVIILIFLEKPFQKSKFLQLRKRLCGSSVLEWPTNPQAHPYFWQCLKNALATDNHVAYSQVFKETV

SMILES	aqueous solubility (aqueous solubility)	Th1-biased cytokine induction (IFN-α, IFN-γ, IL-12, IL-18) (human PBMCs)	TLR7-agonistic activity (in words) (human TLR7)
CCCCc1nc2c(N)nc3ccccc3c2n1Cc1ccc(CN)cc1 [compound 1]	excellent	prominent Th1 bias	–
CCCCc1nc2c(N)nc3ccccc3c2n1Cc1ccc(CNC(=S)NCC(=O)NCC(=O)NCC(=O)OC)cc1 [compound 3]	–	–	active
CCCCc1nc2c(N)nc3ccccc3c2n1Cc1ccc(CNC(=O)CCN2C(=O)CC(SC[C@@H](NC(=O)CC[C@@H](N)C(=O)O)C(=O)NCC(=O)O)C2=O)cc1 (stereo partly shown) [6a]	–	–	completely inactive
